{"source": "patent US10954269B2", "about": "“Anti-inflammatory tripeptides” (Dr. August Wolff Gmbh & Co. KG Arzneimittel, priority 2013, dated 2021)", "key": {"primary human T cells": {"test_system": "primary human T cells", "experiment": "Gene expression of pro-inflammatory cytokines (RT-qPCR) in primary human T cells", "type": "cell-based", "conditions": "RT-qPCR", "from_the_text": "(§1) Cells were activated with PMA/Ionomycin and treated with PBS, α-MSH, K(D)PT and Examples 3, 8 and 9, respectively, at a concentration of 10^−9 M. Values are normalized to β-actin and are shown relative to the gene expression in PBS-stimulated cells.\n(§2) Primary T-cells were isolated from peripheral blood from healthy volunteers and from secondary lymphatic organs from naïve C57BL/6 mice, respectively. The cells were stimulated with phorbol-12-myristate-13-acetate (PMA)/Ionomycin and interferon-gamma (IFN-γ), respectively, for 48 h to activate the cells. The activated cells release pro-inflammatory cytokines. In parallel a human (HaCaT) keratinocyte cell line was activated with PMA/Ionomycin and IFN-γ, respectively, too. […] At the same time release of anti-inflammatory IL-10 was inhibited. Two days after addition of PMA/Ionomycin and IFN-γ, respectively, the induction of IL-1 secretion was determined in the supernatant for proving that the cells are activated. […] The anti-inflammatory properties of the tripeptides were determined 48 h and 72 h following stimulation. A 13-plex-system based FACS analysis was used for showing the reduced secretion of pro-inflammatory cytokines in the supernatant. Data for IL-1, IL-2, IL-6, IL-12p70 IL-17, IFN-γ and TNF-α are considered to be most relevant. Thus, analysis of the anti-inflammatory properties of the tripeptides is preferably based on the results obtained for these analytes. […] Using this method the gene expression of pro-inflammatory markers like IL-6, IL-17, IFN-γ and TNF-α was determined.\n(§3) In a third experiment murine and human T cells and HaCaT cells were stimulated with PMA/Ionomycin and treated with Examples 14, 15, 16 and 17 at 10^−7 M, 10^−9 M and 10^−11 M. Cytokine concentrations (IFN-γ, IL-17 and IL-10 for T cells and IFN-γ for HaCat) were assessed in the supernatants using the Luminex technology. Expression of genes coding for Il-1β, IL-6 and TNF-α was determined. […] Moreover, concentrations of pro-inflammatory cytokines IFN-γ and IL-17 was reduced in the supernatants whereas the concentration of anti-inflammatory cytokine IL-10 was increased."}, "primary murine T cells": {"test_system": "primary murine T cells", "experiment": "Gene expression of pro-inflammatory cytokines (RT-qPCR) in primary murine T cells", "type": "cell-based, C57BL/6 mice", "conditions": "RT-qPCR", "from_the_text": "as §1, §2, §3"}, "Balb/c mice": {"test_system": "Balb/c mice", "experiment": "Imiquimod-induced psoriasis in mice", "type": "in vivo", "conditions": "i.v.", "procedure": "Psoriasis in Balb/c mice is induced by daily application of topical Imiquimod for 8 days. Animal are treated with the test items (topical or systemically). On day 9 the skin phenotype is characterized using a clinical score system (0=normal mouse skin; 1=mild reddening; 2=erythema; 3=erythema, swelling; 4=erythema, swelling, scaling; 5=erythema, swelling, scaling, (bloody) lesions). Skin is analyzed histologically. Lymph nodes are analyzed by flow cytometry and RT-qPCR. mRNA expression in lesional skin is analyzed by RT-qPCR. Cytokine concentrations in the serum are assessed using the Luminex technology."}}, "note": "[ ]: non-standard residue; d: D form. Aib = CC(C)(N)C(=O)O"}
{"substance": "H-Phe-Pro-[Aib]-OH [Example 13]", "values": [{"measurement": "mRNA expression of IL-6, IL-17, IFN-γ and TNF-α", "setting": "primary human T cells", "result": "reduced expression"}, {"measurement": "mRNA expression of IL-6, IL-17, IFN-γ and TNF-α", "setting": "primary murine T cells", "result": "reduced expression"}, {"measurement": "concentrations of TNF-α and IL-17 in the serum", "setting": "Balb/c mice", "result": "reduced"}, {"measurement": "mRNA expression of IL-17, IFN-γ, IL-23, IL-36 and IL-22 in lesional skin", "setting": "Balb/c mice", "result": "reduced"}, {"measurement": "size of the rete ridges", "setting": "Balb/c mice; compared to vehicle control", "result": "decreased"}, {"measurement": "clinical score", "setting": "Balb/c mice; day 9", "result": "reduced"}]}
